Data: patent US20100210589A1, “METHOD FOR IMPROVING HEPATIC FUNCTION” (Kabushiki Kaisha Kayashibara Seibutsu Kagaku Kenkyujo, priority 2004, published 2010)

Test system: golden hamsters
Assay: Administration test of α-glucosyl-hesperidin on hamsters (serum GOT and GPT, cholesterol-supplemented feed)
Type: in vivo, golden hamster
Details: compared with hesperidin at equal molar dose
Procedure: The animal experiment using hamsters was performed to investigate the influences of the intake of α-glucosyl-hesperidin on hepatic functions.
A group of five golden hamsters of five weeks old was fed on liberal amount of “NMF Lab Animal Diet Powder” (produced by Oriental Yeast Co., Ltd.) with the administration of “αG-HESPERIDINPS®” (a powdery α-glucosyl-hesperidin containing […] of α-glucosyl-hesperidin, commercialized by Hayashibara Shoji, Inc.) dissolved in distilled water. α-Glucosyl-hesperidin was administered to the hamsters through a stomach sonde at a dose of 0.25 mmole (193 mg)/kg/body weight every day. After two-week administrations of α-glucosyl-hesperidin, the hamsters were fed for additional three weeks in the same way as described above except that their feed was supplemented with 1% by weight of cholesterol. At four hours after the final administrations, the hamsters were anesthetized and underwent laparotomy, and their large-venous blood samples were taken. After the separation of the hamsters' serums by a conventional method, the levels of GOT and GPT were measured. […] The other group was fed on liberal amount of “NMF Lab Animal Diet Powder” with no administration of the test articles and their blood samples were taken in the same way as describe above, and the serum levels of GOT and GPT were measured to obtain the data before the administrations.

SMILES: COc1ccc(C2CC(=O)c3c(O)cc(O[C@@H]4OC(CO[C@@H]5OC(C)[C@H](O)C(O)C5O)[C@@H](COC[C@H]5OC(CO)[C@@H](O)C(O)C5O)C(O)C4O)cc3O2)cc1O (stereo partly drawn) [α-Glucosyl-hesperidin, α-glucosyl-hesperidin]
- effect for keeping hepatic-function indexes (serum GOT, GPT) at a lower level: greater effect than that of hesperidin
